Measurements reported in PubChem BioAssay AID248 (DTP/NCI, 2004).
“And” between values parts separate entries of the source, which are not always exact repeats. Equal entries are not always repeated. Inconclusive results and toxic doses are left out. Rule as the data show it: active = T/C of 150% or more; inactive = T/C below 125%.

System: L1210 leukemia ip in BDF1 mice, survival T/C
Test: NCI In Vivo Anticancer Drug Screen. Data for tumor model L1210 Leukemia (intraperitoneal) in B6D2F1 (BDF1) mice
Details: endpoint: mean survival time, higher = longer survival
Method in brief: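 In this screen, tumor-bearing mice given compound are compared to those given vehicle, and their survival values are reported as a treated-to-control quotient.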

[1] = dose: 50.0 mg/kg/injection, schedule: Q01DX009 (ip), vehicle: saline with Tween-80
[2] = dose: 100.0 mg/kg/injection, schedule: Q01DX009 (ip), vehicle: saline with Tween-80
[3] = dose: 200.0 mg/kg/injection, schedule: Q01DX009 (ip), vehicle: saline with Tween-80
[4] = dose: 100.0 mg/kg/injection, schedule: Q04DX003 (ip), vehicle: Klucel (hydroxypropylcellulose) (HPC)
[5] = dose: 100.0 mg/kg/injection, schedule: Q04DX003 (ip), vehicle: saline with Tween-80
[6] = dose: 200.0 mg/kg/injection, schedule: Q04DX003 (ip), vehicle: Klucel (hydroxypropylcellulose) (HPC)
[7] = dose: 200.0 mg/kg/injection, schedule: Q04DX003 (ip), vehicle: saline with Tween-80
[8] = dose: 400.0 mg/kg/injection, schedule: Q04DX003 (ip), vehicle: Klucel (hydroxypropylcellulose) (HPC)
[9] = dose: 400.0 mg/kg/injection, schedule: Q04DX003 (ip), vehicle: saline with Tween-80
[10] = dose: 100.0 mg/kg/injection, schedule: Q01DX009 (ip), vehicle: saline
[11] = dose: 100.0 mg/kg/injection, schedule: Q04DX003 (ip), vehicle: saline
[12] = dose: 200.0 mg/kg/injection, schedule: Q01DX009 (ip), vehicle: saline
[13] = dose: 200.0 mg/kg/injection, schedule: Q04DX003 (ip), vehicle: saline
[14] = dose: 400.0 mg/kg/injection, schedule: Q01DX009 (ip), vehicle: saline
[15] = dose: 400.0 mg/kg/injection, schedule: Q04DX003 (ip), vehicle: saline
[16] = dose: 400.0 mg/kg/injection, schedule: Q01DX009 (ip), vehicle: saline with Tween-80
[17] = dose: 50.0 mg/kg/injection, schedule: Q01DX009 (ip), vehicle: saline
[18] = dose: 100.0 mg/kg/injection, schedule: Q01DX009 (ip), vehicle: Klucel (hydroxypropylcellulose) (HPC)

Measured: T/C

NC(=O)C1(O)C(Cl)(Cl)CCCC1(Cl)Cl
inactive: [1] 102 % of control | [2] 91 % of control | [3] 106 % of control

c1ccc(-c2nc3ccccc3nc2-c2ccccc2)cc1
inactive: [4] 96 % of control | [5] 100 % of control | [6] 86 % of control | [7] 100 % of control | [8] 90 % of control | [9] 100 % of control

c1ccc(-c2c[n+]3cc4ccccc4cc3cn2)cc1
inactive: [10] 91 % of control | [11] 100 % of control | [12] 96 % of control | [13] 96 % of control | [14] 97 % of control | [15] 98 % of control

COc1cc2c(c(OC)c1OC)c(=O)c1ccccc1n2C
inactive: dose: 50.0 mg/kg/injection, schedule: Q01DX Z (ip), vehicle: carboxymethylcellulose (CMC) 97 % of control | dose: 100.0 mg/kg/injection, schedule: Q01DX Z (ip), vehicle: carboxymethylcellulose (CMC) 103 % of control | dose: 200.0 mg/kg/injection, schedule: Q01DX Z (ip), vehicle: carboxymethylcellulose (CMC) 101 % of control

O=C(NO)N/N=C/c1ccc(/C=N/NC(=O)NO)cc1
inactive: dose: 100.0 mg/kg/injection, schedule: Q01DX001 (ip), vehicle: other 100 % of control | [2] 101 % of control | dose: 100.0 mg/kg/injection, schedule: Q04DX003 (ip), vehicle: other 104 % of control | dose: 200.0 mg/kg/injection, schedule: Q01DX001 (ip), vehicle: other 100 % of control | [3] 95 % of control | dose: 200.0 mg/kg/injection, schedule: Q04DX003 (ip), vehicle: other 95 % of control | dose: 400.0 mg/kg/injection, schedule: Q01DX001 (ip), vehicle: other 102 % of control | [16] 101 % of control | dose: 400.0 mg/kg/injection, schedule: Q04DX003 (ip), vehicle: other 96 % of control

CC(CN1c2ccccc2Sc2ccccc21)[N+](C)(C)C (centres undefined)
inactive: dose: 100.0 mg/kg/injection, schedule: Q01DX001 (ip), vehicle: saline 88 % of control

Cc1ccc(S(=O)(=O)OC2CN3CCC2CC3)cc1 (centres undefined)
inactive: dose: 12.5 mg/kg/injection, schedule: Q01DX009 (ip), vehicle: saline 95 % of control | dose: 25.0 mg/kg/injection, schedule: Q01DX009 (ip), vehicle: saline 100 % of control | [17] 101 % of control and 102 % of control

COC1OC2COC(c3ccccc3)OC2C(OS(=O)(=O)c2ccc(C)cc2)C1OS(=O)(=O)c1ccc(C)cc1 (centres undefined)
inactive: [2] 93 % of control | [5] 88 % of control | [3] 90 % of control | [7] 91 % of control | [16] 95 % of control

CC(=O)Nc1ccc(OCCOC(=O)Nc2c(C)cccc2C)cc1
inactive: [2] 87 % of control | [3] 92 % of control | [16] 94 % of control

Cc1ccc(S(=O)(=O)NC(CCl)=NC2CCCCC2)cc1
inactive: dose: 100.0 mg/kg/injection, schedule: Q04DX002 (ip), vehicle: Klucel (hydroxypropylcellulose) (HPC) 96 % of control | dose: 200.0 mg/kg/injection, schedule: Q04DX002 (ip), vehicle: Klucel (hydroxypropylcellulose) (HPC) 100 % of control | dose: 400.0 mg/kg/injection, schedule: Q04DX002 (ip), vehicle: Klucel (hydroxypropylcellulose) (HPC) 103 % of control

CC1(C)CCS1(=O)=O
inactive: dose: 100.0 mg/kg/injection, schedule: Q04DX002 (ip), vehicle: saline 100 % of control | dose: 200.0 mg/kg/injection, schedule: Q04DX002 (ip), vehicle: saline 100 % of control | dose: 400.0 mg/kg/injection, schedule: Q04DX002 (ip), vehicle: saline 100 % of control

O=C(O)CNC(=O)Nc1ccccc1
inactive: [2] 97 % of control | [5] 100 % of control | [3] 95 % of control | [7] 96 % of control | [16] 91 % of control | [9] 97 % of control

O=C(N/N=C/c1ccco1)c1ccccc1O
inactive: [1] 108 % of control | [2] 102 % of control | [3] 97 % of control

CCCCn1c(=S)[nH]c2ccccc2c1=O
inactive: [18] 100 % of control | [4] 98 % of control | dose: 200.0 mg/kg/injection, schedule: Q01DX009 (ip), vehicle: Klucel (hydroxypropylcellulose) (HPC) 94 % of control | [6] 95 % of control | dose: 400.0 mg/kg/injection, schedule: Q01DX009 (ip), vehicle: Klucel (hydroxypropylcellulose) (HPC) 96 % of control | [8] 92 % of control

CCP(=S)(CC)CCCCCP(=S)(CC)CC
inactive: [5] 92 % of control | [7] 95 % of control | [9] 87 % of control

O=C(CCC(O)c1ccccc1)c1ccccc1 (centres undefined)
inactive: [2] 94 % of control | [5] 110 % of control | [3] 94 % of control | [7] 106 % of control | [16] 97 % of control | [9] 97 % of control

NS(=O)(=O)c1cccc([N+](=O)[O-])c1
inactive: dose: 20.0 mg/kg/injection, schedule: Q04DX003 (ip), vehicle: Klucel (hydroxypropylcellulose) (HPC) 104 % of control | dose: 25.0 mg/kg/injection, schedule: Q01DX009 (ip), vehicle: Klucel (hydroxypropylcellulose) (HPC) 107 % of control | dose: 40.0 mg/kg/injection, schedule: Q04DX003 (ip), vehicle: Klucel (hydroxypropylcellulose) (HPC) 98 % of control | dose: 50.0 mg/kg/injection, schedule: Q01DX009 (ip), vehicle: Klucel (hydroxypropylcellulose) (HPC) 100 % of control | dose: 80.0 mg/kg/injection, schedule: Q04DX003 (ip), vehicle: Klucel (hydroxypropylcellulose) (HPC) 107 % of control | [18] 96 % of control | [4] 96 % of control

BrCCOCCBr
inactive: dose: 25.0 mg/kg/injection, schedule: Q01DX009 (ip), vehicle: other 97 % of control | dose: 50.0 mg/kg/injection, schedule: Q01DX009 (ip), vehicle: other 92 % of control | dose: 100.0 mg/kg/injection, schedule: Q01DX009 (ip), vehicle: other 95 % of control

CCC[CH2][Sn]([C]#[C][Sn]([CH2]CCC)([CH2]CCC)[CH2]CCC)([CH2]CCC)[CH2]CCC
inactive: dose: 0.39 mg/kg/injection, schedule: Q01DX009 (ip), vehicle: saline 94 % of control | dose: 0.78 mg/kg/injection, schedule: Q01DX009 (ip), vehicle: saline 94 % of control | dose: 1.56 mg/kg/injection, schedule: Q01DX009 (ip), vehicle: saline 97 % of control and 102 % of control | dose: 6.25 mg/kg/injection, schedule: Q01DX009 (ip), vehicle: Klucel (hydroxypropylcellulose) (HPC) 88 % of control | dose: 25.0 mg/kg/injection, schedule: Q04DX002 (ip), vehicle: saline 94 % of control

CCSCCSCC
inactive: [10] 98 % of control | [11] 101 % of control | [12] 98 % of control | [13] 97 % of control | [14] 96 % of control | [15] 97 % of control

O=C(CCl)Nc1ncc([N+](=O)[O-])s1
inactive: dose: 12.5 mg/kg/injection, schedule: Q04DX003 (ip), vehicle: saline with Tween-80 94 % of control | dose: 25.0 mg/kg/injection, schedule: Q04DX003 (ip), vehicle: saline with Tween-80 91 % of control | dose: 50.0 mg/kg/injection, schedule: Q04DX003 (ip), vehicle: saline with Tween-80 87 % of control

CC(=O)CC(C)=Nc1ccc([N+](=O)[O-])cc1
inactive: [5] 101 % of control | [7] 103 % of control | [9] 89 % of control

c1c(NC2=NCCO2)cc2c3c1CCCN3CCC2
inactive: [17] 95 % of control

CC1=CC(=O)C(=O)C=C1O
inactive: dose: 50.0 mg/kg/injection, schedule: Q01DX001 (ip), vehicle: water 103 % of control | dose: 100.0 mg/kg/injection, schedule: Q01DX001 (ip), vehicle: water 113 % of control | dose: 200.0 mg/kg/injection, schedule: Q01DX001 (ip), vehicle: water 108 % of control | dose: 400.0 mg/kg/injection, schedule: Q01DX001 (ip), vehicle: water 110 % of control

COC(=O)CC12CCCC(C)(CC(=O)N1)C2 (centres undefined)
inactive: dose: 100.0 mg/kg/injection, schedule: Q01DX001 (ip), vehicle: carboxymethylcellulose (CMC) 93 % of control | dose: 200.0 mg/kg/injection, schedule: Q01DX001 (ip), vehicle: carboxymethylcellulose (CMC) 96 % of control | dose: 400.0 mg/kg/injection, schedule: Q01DX001 (ip), vehicle: carboxymethylcellulose (CMC) 98 % of control
